Experimental data: patent US12606552B2, “Bifunctional compound, preparation method therefor, and use thereof” (SUZHOU KINTOR PHARMACEUTICALS, INC., priority 2020, dated 2026)

Target: T1, AR (Homo sapiens, UniProt P10275, T878A)
T1 sequence (P10275 1-920 T878A): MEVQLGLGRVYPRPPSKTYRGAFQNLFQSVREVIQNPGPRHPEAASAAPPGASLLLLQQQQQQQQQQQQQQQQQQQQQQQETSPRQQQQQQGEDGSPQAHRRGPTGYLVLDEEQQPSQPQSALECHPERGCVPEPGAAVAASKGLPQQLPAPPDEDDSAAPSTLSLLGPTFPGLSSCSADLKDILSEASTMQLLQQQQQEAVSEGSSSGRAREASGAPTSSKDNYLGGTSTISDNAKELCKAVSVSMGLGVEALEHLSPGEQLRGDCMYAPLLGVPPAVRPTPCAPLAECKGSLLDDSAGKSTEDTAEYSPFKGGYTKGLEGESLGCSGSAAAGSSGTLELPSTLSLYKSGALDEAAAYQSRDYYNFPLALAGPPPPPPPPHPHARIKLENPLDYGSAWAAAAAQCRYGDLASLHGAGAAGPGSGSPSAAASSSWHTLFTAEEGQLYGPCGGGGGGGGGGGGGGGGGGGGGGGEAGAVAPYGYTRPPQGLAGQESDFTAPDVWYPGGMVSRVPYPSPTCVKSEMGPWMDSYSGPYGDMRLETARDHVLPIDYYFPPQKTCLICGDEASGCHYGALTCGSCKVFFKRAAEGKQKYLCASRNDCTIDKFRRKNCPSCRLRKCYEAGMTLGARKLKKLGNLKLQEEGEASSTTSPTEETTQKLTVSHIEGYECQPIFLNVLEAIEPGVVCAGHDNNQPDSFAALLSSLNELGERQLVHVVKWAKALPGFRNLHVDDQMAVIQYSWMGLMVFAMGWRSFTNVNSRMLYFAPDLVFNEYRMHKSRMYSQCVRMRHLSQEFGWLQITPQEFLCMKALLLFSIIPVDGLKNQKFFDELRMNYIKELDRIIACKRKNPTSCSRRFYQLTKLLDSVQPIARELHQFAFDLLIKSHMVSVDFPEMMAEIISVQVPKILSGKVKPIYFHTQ
Assay: Degradation effect on AR protein activity in prostate cancer cell line Lncap by ELISA method
Format: cell-based
Design: Degradation Effect of Compounds on AR Protein Activity in Prostate Cancer Cell Line Lncap by ELISA Method; endogenous in cells; host or cells: LNCaP
Conditions: 24 hours, Total Androgen Receptor Sandwich ELISA, read-out: IC50 (the drug concentration at 50% inhibition) of AR protein
Experimental: Activity Assay Example 6: Determination of the Degradation Effect of Compounds on AR Protein Activity in Prostate Cancer Cell Line Lncap by ELISA Method
• LNCaP: 1.5*10^LNCaP (human prostate cancer) was purchased from the Chinese Academy of Sciences Cell Bank and cultured in RPMI-1640 medium containing 10% fetal bovine serum. Lncap cells were cultured at 37° C. and 5% CO2 in a humidified incubator. When the coverage reached about 80%, the cells were passaged at a ratio of 1:3. • ELISA kit: Total Androgen Receptor Sandwich ELISA Kit (Brand CST, Cat #12850). 2. Test Method 2.1 Cell Plating
After the cells were centrifuged, they were diluted to 1.5×10^4 cells/100 ul with fresh medium and plated into a 96-well plate with 100 ul per well.
Test compound preparation: The compounds were weighed and diluted with DMSO to stock solution with a concentration of 10 mM for later use. According to the experimental requirements, the drug was diluted from 2 uM, 3 fold dilution for 10 point series, and finally 2 μl of the drug was added to each well, and 2 μl of DMSO was added to the control group.
2.3 After 24 hours, the medium was removed, and the cells were washed once with ice-cold 1×PBS. Then the PBS was removed, and 0.5 ml ice-cold 1× Cell Lysis Buffer containing 1 mM PMSF was added to each well plate and incubated on ice for 20 minutes. […]

Cc1ncsc1-c1ccc(CNC(=O)[C@@H]2C[C@@H](O)CN2C(=O)[C@@H](NC(=O)COCCCCOc2ccc(-c3ccc(N4C(=S)N(c5ccc(C#N)c(C(F)(F)F)c5F)C(=O)C4(C)C)cn3)cc2)C(C)(C)C)cc1 [Compound A46]
DC50: 49 nM
